Measured values from PMC10018501 (ACS Omega, 2023).
“And” between values parts separate entries of the source, which are not always exact repeats. Equal entries are not always repeated.

What was measured:
[1] = tested on: nondifferentiated SH-SY5Y cells; test: Neuroprotective estimation; format: cell-based; settings: Homo sapiens, 24 h, read-out: cell viability
AChE = test: Ex vivo AChE estimation in hippocampal homogenate; parameters: species or system rat; settings: scopolamine-treated rats; SD-6 2.5, 5, 10 mg/kg
hAChE [2] = molecular target: T1, hAChE (Homo sapiens, UniProt P22303); test: hAChE enzyme kinetics; format: biochemical; settings: substrate ATCI
[3] = tested on: differentiated SH-SY5Y cells; test: Neurotoxicity estimation; format: cell-based; settings: 10, 20, 40 and 80 μM, 24 h
Aβ1–42 with hAChE = Aβ1–42 with hAChE (Homo sapiens, UniProt P22303); test: hAChE-induced Aβ aggregation inhibition thioflavin T assay; format: biochemical; settings: compound 5, 10 and 20 μM; Aβ 10 μM
female Wistar rats = test: Acute oral toxicity study; format: in vivo
[4] = tested on: ICV Aβ1–42-induced rat model; test: Aβ-induced Morris water maze test; settings: SD-6 10 mg/kg, donepezil 5 mg/kg, orally 9 days; vs Aβ group
malonaldehyde (MDA) = test: Ex vivo MDA estimation; format: in vivo, rat; settings: scopolamine-treated rats; SD-6 2.5, 5, 10 mg/kg; donepezil 5 mg/kg
in vitro = settings: PAMPA, pH 7.4
Aβ1–42 = Aβ1–42 (Homo sapiens, UniProt P05067); test: Self-induced Aβ aggregation inhibition thioflavin T assay; format: biochemical; settings: compound 5, 10 and 20 μM; Aβ 10 μM
[5] = tested on: hippocampal brain (dentate gyrus) neurons; test: Brain tissue histopathology; format: in vivo, rat; settings: Aβ1–42 rats, SD-6 10 mg/kg, donepezil 5 mg/kg
[6] = tested on: superoxide dismutase (SOD); test: Ex vivo SOD assay; format: in vivo, rat; settings: scopolamine-treated rats; SD-6 2.5, 5, 10 mg/kg; donepezil 5 mg/kg
hBChE = hBChE (Equus caballus, UniProt P81908); test: In vitro hBChE inhibition assay; format: biochemical, human
[7] = tested on: scopolamine-induced rat model; test: Scopolamine-induced Y-maze test; format: in vivo, Wistar rats; settings: SD-6 2.5, 5, 10 mg/kg p.o.; donepezil 5 mg/kg p.o.; 7 days; vs scopolamine group
catalase = test: Ex vivo catalase assay; format: in vivo, rat; settings: scopolamine-treated rats; SD-6 2.5, 5, 10 mg/kg; donepezil 5 mg/kg
glutathione (GSH) = test: Ex vivo reduced glutathione; format: in vivo, rat; settings: scopolamine-treated rats; SD-6 2.5, 5, 10 mg/kg; donepezil 5 mg/kg
hBACE-1 = hBACE-1 (Homo sapiens, UniProt P56817); test: biochemical; settings: IC50 ± SEM hBACE-1, n = 3
[8] = molecular target: PAS-AChE (hAChE-PAS region) (Homo sapiens, UniProt P22303); test: Propidium iodide displacement assay; format: binding
hAChE [9] = molecular target: T1, hAChE; test: In vitro hAChE inhibition assay; format: biochemical
acetylcholine (ACh) = test: Ex vivo ACh estimation; format: in vivo, rat; settings: scopolamine-treated rats; SD-6 2.5, 5, 10 mg/kg
[10] = n = 3, mean ± SEM

PAS-AChE (hAChE-PAS region), sequence (P22303 32-617 isoform P22303-2 limits assumed): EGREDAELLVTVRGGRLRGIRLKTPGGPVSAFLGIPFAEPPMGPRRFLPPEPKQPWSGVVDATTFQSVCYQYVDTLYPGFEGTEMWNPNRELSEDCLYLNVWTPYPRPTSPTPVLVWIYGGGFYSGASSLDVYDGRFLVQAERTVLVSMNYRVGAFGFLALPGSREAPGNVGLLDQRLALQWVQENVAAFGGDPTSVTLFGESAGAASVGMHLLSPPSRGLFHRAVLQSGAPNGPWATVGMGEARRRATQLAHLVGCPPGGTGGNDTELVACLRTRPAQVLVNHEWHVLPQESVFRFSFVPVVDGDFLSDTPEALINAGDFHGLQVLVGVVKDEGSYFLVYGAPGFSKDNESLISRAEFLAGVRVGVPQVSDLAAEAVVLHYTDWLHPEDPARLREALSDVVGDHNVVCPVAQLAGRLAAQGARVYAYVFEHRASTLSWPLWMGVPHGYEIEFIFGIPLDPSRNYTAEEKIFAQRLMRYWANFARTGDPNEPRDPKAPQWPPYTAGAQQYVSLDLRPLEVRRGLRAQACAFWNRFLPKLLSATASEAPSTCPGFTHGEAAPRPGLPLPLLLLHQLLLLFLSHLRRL
T1 sequence (P22303 32-617 isoform P22303-2 limits assumed): as above
hBACE-1, sequence (P56817 46-501): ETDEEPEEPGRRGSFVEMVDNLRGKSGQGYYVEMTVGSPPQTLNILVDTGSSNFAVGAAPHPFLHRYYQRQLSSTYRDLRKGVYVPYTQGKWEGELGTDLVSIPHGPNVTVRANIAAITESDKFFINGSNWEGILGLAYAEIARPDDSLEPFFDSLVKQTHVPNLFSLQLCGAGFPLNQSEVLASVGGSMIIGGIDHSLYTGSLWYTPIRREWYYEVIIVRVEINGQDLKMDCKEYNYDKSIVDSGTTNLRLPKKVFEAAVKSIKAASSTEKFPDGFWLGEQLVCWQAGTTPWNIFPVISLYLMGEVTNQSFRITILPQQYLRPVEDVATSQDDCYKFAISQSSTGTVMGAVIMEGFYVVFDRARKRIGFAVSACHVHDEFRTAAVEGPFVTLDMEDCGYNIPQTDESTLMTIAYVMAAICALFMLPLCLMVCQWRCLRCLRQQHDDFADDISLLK
Aβ1–42, sequence (P05067 672-713): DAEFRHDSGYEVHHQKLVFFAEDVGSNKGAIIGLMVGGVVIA
Aβ1–42 with hAChE, sequence (P22303 32-588 isoform P22303-2): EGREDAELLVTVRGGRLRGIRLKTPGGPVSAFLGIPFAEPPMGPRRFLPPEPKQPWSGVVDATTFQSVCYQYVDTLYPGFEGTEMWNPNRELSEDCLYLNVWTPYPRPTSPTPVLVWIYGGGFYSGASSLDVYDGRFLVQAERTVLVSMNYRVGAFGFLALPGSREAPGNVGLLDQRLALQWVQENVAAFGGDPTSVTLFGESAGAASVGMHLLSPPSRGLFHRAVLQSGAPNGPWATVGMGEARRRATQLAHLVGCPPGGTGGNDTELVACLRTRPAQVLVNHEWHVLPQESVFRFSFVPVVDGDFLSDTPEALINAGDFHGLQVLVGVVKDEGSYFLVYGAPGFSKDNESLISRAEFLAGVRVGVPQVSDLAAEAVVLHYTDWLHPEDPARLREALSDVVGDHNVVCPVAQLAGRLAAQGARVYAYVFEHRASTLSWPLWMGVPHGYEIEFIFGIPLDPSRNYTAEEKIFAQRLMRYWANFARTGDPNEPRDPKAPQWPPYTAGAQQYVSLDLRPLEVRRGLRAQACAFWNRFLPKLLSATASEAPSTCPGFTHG
hBChE, sequence (P81908 whole entry): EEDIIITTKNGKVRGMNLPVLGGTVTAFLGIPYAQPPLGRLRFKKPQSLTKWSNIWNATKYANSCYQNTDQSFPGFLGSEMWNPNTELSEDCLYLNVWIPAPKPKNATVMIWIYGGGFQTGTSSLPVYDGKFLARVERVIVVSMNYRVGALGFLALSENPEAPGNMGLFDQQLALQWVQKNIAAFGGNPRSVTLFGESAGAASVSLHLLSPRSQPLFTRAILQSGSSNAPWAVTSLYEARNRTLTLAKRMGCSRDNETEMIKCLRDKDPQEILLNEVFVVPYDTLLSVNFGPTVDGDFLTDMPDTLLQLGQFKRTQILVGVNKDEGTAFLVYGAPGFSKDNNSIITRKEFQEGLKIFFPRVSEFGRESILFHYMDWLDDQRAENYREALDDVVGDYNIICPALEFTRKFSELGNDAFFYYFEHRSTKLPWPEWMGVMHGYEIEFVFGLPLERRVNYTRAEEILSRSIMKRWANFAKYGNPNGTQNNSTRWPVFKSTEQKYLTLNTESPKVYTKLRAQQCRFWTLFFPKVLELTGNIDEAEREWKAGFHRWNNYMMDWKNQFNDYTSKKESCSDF

Q: What does the source list for `S=c1oc(-c2ccccc2)nn1CN1CCN(Cc2ccccc2)CC1` [SD-6, 3-((4-Benzylpiperazin-1-yl)methyl)-5-phenyl-1,3,4-oxadiazole-2(3H)-thione]?
A: viability at 5 µM [1]: 61.4%; viability at 10 µM [1]: 74%; viability at 20 µM [1]: 83.6%; AChE level (hippocampal) (AChE): dose-dependent decrease; type of inhibition (Lineweaver–Burk plot) (hAChE [2]): mixed-type noncompetitive; neurotoxicity (MTT, cell population and morphology) [3]: non-neurotoxic; % Aβ aggregation inhibition, hAChE-induced (Aβ1–42 with hAChE): 41–81%; weight loss (initial, in some animals) (female Wistar rats; 100–500 mg/kg, p.o., regained in 10–12 days): 12–25%; organ histopathology (kidney, liver, lungs, heart; H&E) (female Wistar rats; after 14 days): normal tissue appearance; hepatic and renal function tests (female Wistar rats; blood samples after acute toxicity study): within the range; escape latency time (ELT) [4]: significant change as compared to the Aβ group; time spent in the platform zone [4]: significantly (^bp < 0.001) higher; total number of entries to the platform zone [4]: significantly (^bp < 0.001) different from the Aβ-treated animal group; MDA level (malonaldehyde (MDA)): declines in MDA; Papp (in vitro): 5.643 ± 0.021 ×10⁻⁶ cm/s; % Aβ aggregation inhibition, self-induced (Aβ1–42): 22–69%; neuronal morphology (dentate gyrus) [5]: less disordered neuronal arrangement and vacuolar fibrosis; neuronal density (dentate gyrus) ([5]; vs Aβ1–42-treated group): higher; SOD level [6]: elevation of SOD levels; IC50 (hBChE): 1580 ± 37 nM; % spontaneous alterations [7]: significant increase in % spontaneous alterations in a dose-dependent manner; catalase activity (catalase): elevation of both the biomarkers; GSH level (glutathione (GSH)): elevation of both the biomarkers; IC50 (hBACE-1): 753 ± 18 nM; PAS-AChE propidium iodide displacement (%) ([8]; [I] = 10 μM): 27.3% and 27.316 ± 1.208%; PAS-AChE propidium iodide displacement (%) ([8]; [I] = 50 μM): 56.2% and 56.238 ± 1.338%; IC50 (hAChE [9]; IC50 ± SEM hAChE, n = 3): 907 ± 11 nM; IC50 (hAChE [9]; hAChE inhibitory activity (good/moderate/poor), class in words): < 1000 nM; ACh brain level (acetylcholine (ACh)): dose-dependent increase; Pe(exp) PAMPA–BBB [10]: 5.643 10^–6 cm/s
